Laboratory results reported in US8372654B2, “Method for investigating the fate of a test compound or the stateof a biological system by means of NMR of hyperpolarised NMR active nuclei” (GE Healthcare Limited, priority 2001, dated 2013).
Each block holds one compound with its values, some of them ahead of it.

Tests used:
[1] = benzoic acid metabolism study: iv administration to anaesthetised rats, urine collected; format: in vivo, rat
[2] = rat, in vivo, iv, 20 mg/kg
Protocol: (U-^13C)Paracetamol was administered intravenously at 20 mg/kg (at 0 and 3 hrs) to 4 anaesthetised rats, urine was collected from canulated urethra and bile was collected from canulated bile duct (2 rats only) at 0-3 and 3-6 hours. Bile (3-6 hrs) was extracted with dichloromethane and then fractionated by RP-hplc (C18 Kromasil, 25×1 cm, 5 um) using gradient elution with formic acid in water and formic acid in methanol).
Several metabolites were collected. […] The isolated material was then dried and an aliquot re-analysed by RP hplc indicating a peak purity of 96.7%, monitored by on-line UV detection (at 254 nm) and gave the expected (M+H)+ ion at 240 mass units by on-line electrospray ionisation mass spectrometry (EI-MS).

Compound: (^13C-carboxyl) hippuric acid
- level measured in urine ([1]; rat urine, 0-2 hr collection, after iv (13C-carboxyl) benzoic acid 10 mg/Kg): approximately 5 mg/ml

- metabolite identified in bile [2]: Paracetamol sulphate
Compound: (U-^13C)Paracetamol

Compound: O=[13C](O)c1ccccc1 [(^13C-carboxyl) Benzoic acid]
- major metabolite in urine ([1]; rat urine after iv 10 mg/Kg at 0 and 2 hrs, isolated by SPE and RP-hplc): (^13C-carboxy) hippuric acid
